Data: patent publication US5491169A, “Amino acid derivatives and their therapeutical applications” (priority 1989, dated 1996)

Legend:
[1] = target: T1, purified rabbit kidney neutral endopeptidase (Oryctolagus cuniculus, UniProt P08049); test: In vitro inhibitory potency against neutral endopeptidase; type: biochemical; conditions: purified rabbit kidney enzyme, (3H)-D-Ala2-Leu5-enkephalin, 25° C., pH 7.4, DTT 100 equivalents
T1 construct: from tissue; host or cells: rabbit kidney (purified enzyme)
T1 sequence (P08049 1-750): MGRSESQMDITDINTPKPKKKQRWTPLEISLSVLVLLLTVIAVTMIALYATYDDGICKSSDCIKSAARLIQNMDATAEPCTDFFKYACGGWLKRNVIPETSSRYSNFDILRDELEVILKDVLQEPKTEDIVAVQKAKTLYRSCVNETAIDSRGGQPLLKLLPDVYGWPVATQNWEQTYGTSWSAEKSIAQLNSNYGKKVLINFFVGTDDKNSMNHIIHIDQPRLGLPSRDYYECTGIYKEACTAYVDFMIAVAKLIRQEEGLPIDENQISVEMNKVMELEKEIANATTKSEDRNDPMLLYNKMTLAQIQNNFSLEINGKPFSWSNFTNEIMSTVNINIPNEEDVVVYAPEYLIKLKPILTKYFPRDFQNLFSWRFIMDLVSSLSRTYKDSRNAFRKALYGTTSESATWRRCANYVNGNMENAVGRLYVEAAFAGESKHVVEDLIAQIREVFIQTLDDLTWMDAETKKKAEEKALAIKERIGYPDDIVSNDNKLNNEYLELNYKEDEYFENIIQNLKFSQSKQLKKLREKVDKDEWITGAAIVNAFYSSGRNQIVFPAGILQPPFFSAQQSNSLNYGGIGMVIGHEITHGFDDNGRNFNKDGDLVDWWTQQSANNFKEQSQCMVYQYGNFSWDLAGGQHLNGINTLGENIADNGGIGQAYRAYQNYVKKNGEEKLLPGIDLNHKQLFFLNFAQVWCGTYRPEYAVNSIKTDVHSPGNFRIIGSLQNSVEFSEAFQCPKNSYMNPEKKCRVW
Method: (§1) The biological activity relates to the inhibition of purified aminopeptidase N and of purified neutral endopeptidase.
(§2) 1) In vitro inhibition of enkephalinase activities.
a) Inhibitory potency against neutral endopeptidase
The inhibitory power is determined on purified rabbit kidney neutral endopeptidase following the protocol described in the literature (Blumberg et al. Life Sci. (1981) 28, 301). After a preincubation for 15 minutes at 25° C., an aliquot of proteins is incubated for 20 minutes at 25° C. in the presence of 20 nmol of (^3 H)-D-Ala^2 -Leu^5 -enkephalin and the test compound in solution in Tris-HCl buffer (pH 7.4) in the presence of dithiothreitol DTT (100 equivalents relative to the inhibitor). The reaction is stopped by adding 0.2 N HCl. The tritiated metabolite (^3 H)-Tyr-D-Ala-Gly is separated from the D-Ala^2 -Leu^5 -enkephalin by chromatography on a Porapak column, and the quantity formed measured using a liquid scintillation counter.
The activity of the different compounds is expressed as 50% inhibitory concentrations (IC50), and the results are summarized in Table II.

[2] = target: T2, purified porcine kidney aminopeptidase N (Sus scrofa, UniProt P15145); test: In vitro inhibitory potency against aminopeptidase N; type: biochemical; conditions: purified porcine kidney enzyme, (3H)-Leu5-enkephalin, DTT
T2 construct: purchased Boehringer, France; host or cells: porcine kidney
T2 sequence (P15145 1-963): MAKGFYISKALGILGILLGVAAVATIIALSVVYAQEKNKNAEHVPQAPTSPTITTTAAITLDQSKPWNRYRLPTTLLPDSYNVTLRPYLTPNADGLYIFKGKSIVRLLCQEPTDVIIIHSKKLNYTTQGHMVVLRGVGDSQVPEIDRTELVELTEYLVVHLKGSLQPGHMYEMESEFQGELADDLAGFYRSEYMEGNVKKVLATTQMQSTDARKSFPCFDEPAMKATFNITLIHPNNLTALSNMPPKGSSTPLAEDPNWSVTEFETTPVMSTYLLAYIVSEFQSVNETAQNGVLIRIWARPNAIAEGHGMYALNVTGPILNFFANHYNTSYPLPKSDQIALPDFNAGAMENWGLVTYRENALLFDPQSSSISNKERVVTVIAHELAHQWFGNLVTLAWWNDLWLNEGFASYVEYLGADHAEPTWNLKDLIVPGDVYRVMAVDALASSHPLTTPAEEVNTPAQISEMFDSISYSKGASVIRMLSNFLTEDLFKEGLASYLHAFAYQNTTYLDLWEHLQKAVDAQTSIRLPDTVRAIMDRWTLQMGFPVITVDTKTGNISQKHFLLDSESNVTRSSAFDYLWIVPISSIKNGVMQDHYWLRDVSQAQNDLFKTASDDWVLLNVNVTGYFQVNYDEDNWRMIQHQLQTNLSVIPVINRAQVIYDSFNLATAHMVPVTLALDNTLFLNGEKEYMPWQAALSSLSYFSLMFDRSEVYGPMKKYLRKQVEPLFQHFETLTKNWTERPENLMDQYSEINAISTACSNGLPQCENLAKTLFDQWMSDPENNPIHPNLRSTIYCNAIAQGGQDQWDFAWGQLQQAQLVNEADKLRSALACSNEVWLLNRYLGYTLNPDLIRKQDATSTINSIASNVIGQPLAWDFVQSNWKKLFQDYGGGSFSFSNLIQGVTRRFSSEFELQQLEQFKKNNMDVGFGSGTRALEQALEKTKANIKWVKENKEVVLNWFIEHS
Method: as §1, §2
b) Inhibitory potency against aminopeptidase N
The inhibitory power is measured on purified porcine kidney aminopeptidase (Boehringer, France). The assay is performed in a manner identical to the above, using (^3 H)-Leu^5 -enkephalin as a substrate. The metabolite formed, (^3 H)-Tyr, is separated by chromatography on a Porapak column, and the quantity formed measured using a liquid scintillation counter.

cerebral NEP = test: In vivo inhibition of cerebral NEP; conditions: mice, i.v.
Method: 2) "In vivo" inhibition of cerebral NEP
The enzymatic activity of cerebral NEP is compared in mice untreated or treated with a given dose of compound (approximately 2.5 mg/kg injected intravenously. The animals are sacrificed at variable times after injection of the inhibitor, and the NEP activity is determined in the brain by measuring the degradation of (^3 H)-D-Ala^2 -Leu^5 -enkephalin.
For the final compound of Example 1, injected at a dose of 2.7 μmol/kg (47.6 μg in 100 μl), the following results are obtained: […]

Hot plate test, i.v. = type: in vivo; conditions: Mus musculus, iv, mice, hot plate 55° C., Table III 50% analgesia
Method: (§3) 1) Hot .plate test: This involves the licking and jumping reflex of the mouse on a plate heated to 55° C., according to the method of Jacob et al (Arch Int. Pharmacodyn. 122 287, 1959; 1961).
1.1. Administered i.v. (100 μl in tail vein) in mice, the compounds tested display a characteristic effect both on the latency time of jumping and on latency time of licking. These effects are antagonized by naloxone (0.5 mg/kg s.c.).
The results are expressed in Table III as a % analgesia. The percentage analgesia is expressed for each dose of compound tested by the following formula: [formula]

Hot plate test, i.p. = type: in vivo; conditions: mice
Method: as §3
1.2 Administered i.p. in mice, the test compounds display a characteristic effect on the times of restraint of jumping and of licking. These effects are antagonized by naloxone (0.5 mg/kg).

[3] = Test on abdominal cramps induced by phenylbenzoquinone, i.v.; type: in vivo
Method: 2) Test on abdominal cramps
(Hendershot and Forsaith. J. Pharmacol. (1975), 125, 237): This test measures the number of cramps induced by i.p. injection of 100 μl of a 0.02% solution of phenylbenzoquinone. The number of cramps is counted during 10 minutes, 10 minutes after the injection. Administered i.v., the compounds decrease the number of cramps.

[4] = Tail flick test (withdrawal of the tail), i.v.; type: in vivo; conditions: rats, 10 mg/kg
Method: 3) Test of withdrawal of the tail in rats: (tail flick test): administered i.v. in rats, the compounds according to the invention produce a significant extension of the time of withdrawal of the tail. These effects are antagonized by naloxone (0.5 mg/kg s.c.).
The results are expressed as a % analgesia for the same dose (10 mg/kg) of all the compounds tested.

[5] = Tolerance after long-term administration, mice (% analgesia); type: in vivo; conditions: mouse, s.c. four times per 24 h, compound 8 5 mg/kg, morphine 0.5 mg/kg
Method: (§4) e) Study of the tolerance and addiction effects induced by long-term administration of the compound of Example 8:
(§5) 1) The compound 8 is administered s.c. four times per 24 hours at a dose of 5 mg/kg for 6 days to mice and at 10 mg/kg to rats.
(§6) Morphine (hydrochloride) is administered under the same conditions (0.5 mg/kg in mice, 2 mg/kg in rats). The control animals receive only the vehicle.

[6] = Tolerance after long-term administration, rats (% analgesia); type: in vivo; conditions: rat, s.c. four times per 24 h, compound 8 10 mg/kg, morphine 2 mg/kg, compound 7 dose not given
Method: as §4, §5, §6

Compound	IC50 [1] [nM]	IC50 [2] [nM]	ED50 (Hot plate test, i.v.) [mg/kg]	further results
CC(C)CC(N)CSSCC(Cc1ccccc1)C(=O)NCC(=O)OCc1ccccc1 (stereo not shown) [Example 1]	2	5	4	% inhibition cerebral NEP (cerebral NEP; 2.7 μmol/kg (Example 7: same conditions), 60'): 68 ± 4%; % inhibition cerebral NEP (cerebral NEP; 2.7 μmol/kg (Example 7: same conditions), 120'): 63 ± 2%; % inhibition cerebral NEP (cerebral NEP; 2.7 μmol/kg (Example 7: same conditions), 180'): 42 ± 16%; % inhibition cerebral NEP (cerebral NEP; 2.7 μmol/kg, 15' (n = 4)): 96 ± 9%; dose in i.p. hot plate table (Hot plate test, i.p.): 10 mg/kg; % analgesia (abdominal cramps) ([3]; 1 mg/kg): 24.6% ± 8; % analgesia (abdominal cramps) ([3]; 3 mg/kg): 46.9% ± 7.9; % analgesia (abdominal cramps) ([3]; 9 mg/kg): 73.9% ± 8.2; % analgesia (tail flick) [4]: 20%
CC(C)CC(N)CSSCC(Cc1ccccc1)C(=O)NC(C)C(=O)OCc1ccccc1 (stereo not shown) [Example 2]	2.5	5	–	–
CC(C)CC(N)CSSCC(Cc1ccccc1)C(=O)NC(Cc1ccccc1)C(=O)OCc1ccccc1 (stereo not shown) [Example 3]	1.2	5	–	–
NC(CSSCC(Cc1ccccc1)C(=O)NCC(=O)OCc1ccccc1)Cc1ccccc1 (stereo not shown) [Example 4]	2	8	–	–
CSCCC(N)CSSCC(Cc1ccccc1)C(=O)NC(C)C(=O)OCc1ccccc1 (stereo not shown) [Example 6]	1.2	2	–	–
CC(NC(=O)C(CC[S+](C)[O-])CSSCC(N)CC[S+](C)[O-])C(=O)OCc1ccccc1 (stereo not shown) [Example 22]	7	2	4.5	dose in i.p. hot plate table (Hot plate test, i.p.): 6 mg/kg
C[S+]([O-])CCC(N)CSSCC(Cc1ccccc1)C(=O)NC1CCCCC1C(=O)OCc1ccccc1 (stereo not shown) [Example 26]	5	2	8	–
C[S+]([O-])CCC(N)CSSCC(CC[S+](C)[O-])C(=O)NC(CC(=O)OCc1ccccc1)c1ccccc1 (stereo not shown) [Example 28]	3	2	4	–
C[S+]([O-])CCC(N)CSSCC(CC[S+](C)[O-])C(=O)NC1CCCCC1C(=O)OCc1ccccc1 (stereo not shown) [Example 32]	4	2	2	dose in i.p. hot plate table (Hot plate test, i.p.): 5.5 mg/kg; % analgesia (tail flick) [4]: 36%
CC(C)CC(CSSCC(N)CC[S+](C)[O-])C(=O)NN1CCOCC1 (stereo not shown) [Example 33]	5	2	–	–
CN1CC[C@]23c4c5ccc(O)c4O[C@H]2[C@@H](O)C=C[C@H]3[C@H]1C5 [morphine, reference compound]	–	–	–	% analgesia relative to the controls ([5]; day 0): 100 ± 10%; % analgesia relative to the controls ([5]; day 1): 60 ± 10%; % analgesia relative to the controls ([5]; day 6): 0%; % analgesia relative to the controls ([6]; day 0): 70 ± 12%; % analgesia relative to the controls ([6]; day 1): 20 ± 3%; % analgesia relative to the controls ([6]; day 6): 0%
